{
  "source": "patent US20250262279A1",
  "about": "“DOSE REGIMEN FOR LONG-ACTING GLP1/GLUCAGON RECEPTOR AGONISTS” (Boehringer Ingelheim International GmbH, priority 2021, published 2025)",
  "test": "Example 1 Phase I titration study in obesity/overweight: safety and tolerability",
  "source_text": "Blinded within dose groups, randomised, placebo-controlled\n• Male patients (Part A); male and female patients (Part B) • Age 18 to <70 years • BMI 27 to <40 kg/m^2 • Body weight of at least 70 kg for women and 80 kg for men • Stable body weight, defined as no more than 5% change within 3 months prior to screening\nFurther criteria of interest: • AEs (including clinically relevant findings from the physical examination and assessment of local tolerability) • Safety laboratory tests • 12-lead ECG • Vital signs (blood pressure, pulse rate) • Continuous ECG (including mean daily heart rate) • Assessment of local tolerability by the investigator • The cumulative number [N (%)] of patients withdrawn from up-titration by up-titration scheme and week\nDescriptive statistics were calculated for all endpoints. […] No formal interim analysis was conducted. Data from the completed 6-week cohorts were analysed before database lock for internal decision-making.",
  "data": [
    {"smiles": "CC[C@H](C)[C@H](NC(=O)[C@H](Cc1ccccc1)NC(=O)[C@H](CC(=O)O)NC(=O)[C@H](CCCCN)NC(=O)[C@H](C)NC(=O)[C@H](C)NC(=O)[C@H](CCCNC(=N)N)NC(=O)[C@H](CCC(=O)O)NC(=O)[C@H](CC(=O)O)NC(=O)[C@H](CC(C)C)NC(=O)[C@H](Cc1ccc(O)cc1)NC(=O)[C@H](CCCCN)NC(=O)[C@H](CO)NC(=O)[C@H](Cc1ccc(O)cc1)NC(=O)[C@H](CC(=O)O)NC(=O)[C@H](CO)NC(=O)[C@@H](NC(=O)[C@H](Cc1ccccc1)NC(=O)[C@@H](NC(=O)CNC(=O)[C@H](CCC(N)=O)NC(=O)C1(NC(=O)[C@@H](N)Cc2c[nH]cn2)CCC1)[C@@H](C)O)[C@@H](C)O)C(=O)N[C@@H](CCCCNC(=O)CNC(=O)CNC(=O)[C@H](CO)NC(=O)CNC(=O)[C@H](CO)NC(=O)CNC(=O)CC[C@H](NC(=O)CCCCCCCCCCCCCCCCC(=O)O)C(=O)O)C(=O)N[C@@H](Cc1c[nH]c2ccccc12)C(=O)N[C@@H](CC(C)C)C(=O)N[C@@H](CCC(=O)O)C(=O)N[C@@H](CO)C(=O)N[C@@H](C)C(N)=O", "note": "[Compound I]", "values": [
      {"measurement": "clinical laboratory analyses", "setting": "Ex.1 Part A", "result": "no treatment-emergent clinically relevant findings"},
      {"measurement": "deaths", "setting": "Ex.1 Part A", "result": "No patients died"},
      {"measurement": "Patients withdrawn from up-titration", "setting": "Ex.1 Part A (6 wk), Compound I total", "result": "27 (40.3) N (%)"},
      {"measurement": "Patients withdrawn from up-titration", "setting": "Ex.1 Part A (6 wk), Weekly 1", "result": "6 (35.3) N (%)"},
      {"measurement": "Patients withdrawn from up-titration", "setting": "Ex.1 Part A (6 wk), Weekly 2", "result": "8 (44.4) N (%)"},
      {"measurement": "Patients withdrawn from up-titration", "setting": "Ex.1 Part A (6 wk), Weekly 3", "result": "13 (76.5) N (%)"},
      {"measurement": "Patients with AE leading to discontinuation of trial drug", "setting": "Ex.1 Part A, Cmp I total", "result": "5 (7.5) N (%)"},
      {"measurement": "Patients with any AE", "setting": "Ex.1 Part A, Cmp I total", "result": "67 (100) N (%)"},
      {"measurement": "Patients with investigator defined drug-related AE", "setting": "Ex.1 Part A, Cmp I total", "result": "67 (100) N (%)"},
      {"measurement": "Patients with other significant AEs (ICH E3)", "setting": "Ex.1 Part A, Cmp I total", "result": "5 (7.5) N (%)"},
      {"measurement": "Patients with serious AE", "setting": "Ex.1 Part A, Cmp I total", "result": "1 (1.5) N (%)"},
      {"measurement": "Patients with severe AE", "setting": "Ex.1 Part A, Cmp I total", "result": "3 (4.5) N (%)"},
      {"measurement": "Patients with AE leading to discontinuation of trial drug", "setting": "Ex.1 Part A, Daily", "result": "0 N (%)"},
      {"measurement": "Patients with any AE", "setting": "Ex.1 Part A, Daily", "result": "15 (100) N (%)"},
      {"measurement": "Patients with investigator defined drug-related AE", "setting": "Ex.1 Part A, Daily", "result": "15 (100) N (%)"},
      {"measurement": "Patients with other significant AEs (ICH E3)", "setting": "Ex.1 Part A, Daily", "result": "0 N (%)"},
      {"measurement": "Patients with serious AE", "setting": "Ex.1 Part A, Daily", "result": "0 N (%)"},
      {"measurement": "Patients with severe AE", "setting": "Ex.1 Part A, Daily", "result": "0 N (%)"},
      {"measurement": "drug-related abdominal distension, frequency", "setting": "Ex.1 Part A, Daily", "result": 13.3, "unit": "%"},
      {"measurement": "drug-related cardiac disorders", "setting": "Ex.1 Part A, Daily", "result": "No drug-related cardiac disorders were reported"},
      {"measurement": "drug-related vomiting, frequency", "setting": "Ex.1 Part A, Daily", "result": "no cases"},
      {"measurement": "Patients with AE leading to discontinuation of trial drug", "setting": "Ex.1 Part A, Weekly 1", "result": "1 (5.9) N (%)"},
      {"measurement": "Patients with any AE", "setting": "Ex.1 Part A, Weekly 1", "result": "17 (100) N (%)"},
      {"measurement": "Patients with investigator defined drug-related AE", "setting": "Ex.1 Part A, Weekly 1", "result": "17 (100) N (%)"},
      {"measurement": "Patients with other significant AEs (ICH E3)", "setting": "Ex.1 Part A, Weekly 1", "result": "1 (5.9) N (%)"},
      {"measurement": "Patients with serious AE", "setting": "Ex.1 Part A, Weekly 1", "result": "0 N (%)"},
      {"measurement": "Patients with severe AE", "setting": "Ex.1 Part A, Weekly 1", "result": "1 (5.9) N (%)"},
      {"measurement": "proportion of patients who withdrew from up-titration", "setting": "Ex.1 Part A, Weekly 1", "result": 35.3, "unit": "%"},
      {"measurement": "patients with severe diarrhoea", "setting": "Ex.1 Part A, Weekly 1 and Weekly 2", "result": 2, "unit": "patients"},
      {"measurement": "Patients with AE leading to discontinuation of trial drug", "setting": "Ex.1 Part A, Weekly 2", "result": "2 (11.1) N (%)"},
      {"measurement": "Patients with any AE", "setting": "Ex.1 Part A, Weekly 2", "result": "18 (100) N (%)"},
      {"measurement": "Patients with investigator defined drug-related AE", "setting": "Ex.1 Part A, Weekly 2", "result": "18 (100) N (%)"},
      {"measurement": "Patients with other significant AEs (ICH E3)", "setting": "Ex.1 Part A, Weekly 2", "result": "2 (11.1) N (%)"},
      {"measurement": "Patients with serious AE", "setting": "Ex.1 Part A, Weekly 2", "result": "1 (5.6) N (%)"},
      {"measurement": "Patients with severe AE", "setting": "Ex.1 Part A, Weekly 2", "result": "2 (11.1) N (%)"},
      {"measurement": "patients with severe vomiting", "setting": "Ex.1 Part A, Weekly 2", "result": "one"},
      {"measurement": "proportion of patients who withdrew from up-titration", "setting": "Ex.1 Part A, Weekly 2", "result": 44.4, "unit": "%"},
      {"measurement": "patients with serious AE ventricular tachycardia", "setting": "Ex.1 Part A, Weekly 2, assessed as drug-related, led to discontinuation", "result": "One"},
      {"measurement": "Patients with AE leading to discontinuation of trial drug", "setting": "Ex.1 Part A, Weekly 3", "result": "2 (11.8) N (%)"},
      {"measurement": "Patients with any AE", "setting": "Ex.1 Part A, Weekly 3", "result": "17 (100) N (%)"},
      {"measurement": "Patients with investigator defined drug-related AE", "setting": "Ex.1 Part A, Weekly 3", "result": "17 (100) N (%)"},
      {"measurement": "Patients with other significant AEs (ICH E3)", "setting": "Ex.1 Part A, Weekly 3", "result": "2 (11.8) N (%)"},
      {"measurement": "Patients with serious AE", "setting": "Ex.1 Part A, Weekly 3", "result": "0 N (%)"},
      {"measurement": "Patients with severe AE", "setting": "Ex.1 Part A, Weekly 3", "result": "0 N (%)"},
      {"measurement": "proportion of patients who withdrew from up-titration", "setting": "Ex.1 Part A, Weekly 3", "result": 76.5, "unit": "%"},
      {"measurement": "proportion of patients who withdrew from up-titration", "setting": "Ex.1 Part A, all Compound I groups", "result": 40.3, "unit": "%"},
      {"measurement": "continuous ECG monitoring over 24 hours, mean heart rate", "setting": "Ex.1 Part A, all Compound I treatment groups", "result": "increases in mean heart rate"},
      {"measurement": "clinical laboratory analyses", "setting": "Ex.1 Part B", "result": "no treatment-emergent clinically relevant findings"},
      {"measurement": "deaths", "setting": "Ex.1 Part B", "result": "No patients died"},
      {"measurement": "drug-related cardiac disorders", "setting": "Ex.1 Part B", "result": "no cases"},
      {"measurement": "Patients withdrawn from up-titration", "setting": "Ex.1 Part B (16 wk), Compound I total", "result": "8 (22.2) N (%)"},
      {"measurement": "Patients withdrawn from up-titration", "setting": "Ex.1 Part B (16 wk), Weekly 4", "result": "3 (23.1) N (%)"}
    ]}
  ]
}
